Data: US7875595B2, “2-polycyclic propynyl adenosine analogs having A2A agonist activity” (University of Virginia Patent Foundation, priority 2004, dated 2011)
Like-named read-outs stand apart in the source and are kept apart here.

How the values were obtained:
[1] = target: T1, human A1 AR (Homo sapiens, UniProt P30542); test: Radioligand competition binding to human A1 adenosine receptor (125I-ABA); conditions: membranes of CHO K1 cells expressing human A1 AR, read-out: A1 (nM) binding affinity
T1 construct: expressed in transfected cells
T1 sequence (P30542 1-326): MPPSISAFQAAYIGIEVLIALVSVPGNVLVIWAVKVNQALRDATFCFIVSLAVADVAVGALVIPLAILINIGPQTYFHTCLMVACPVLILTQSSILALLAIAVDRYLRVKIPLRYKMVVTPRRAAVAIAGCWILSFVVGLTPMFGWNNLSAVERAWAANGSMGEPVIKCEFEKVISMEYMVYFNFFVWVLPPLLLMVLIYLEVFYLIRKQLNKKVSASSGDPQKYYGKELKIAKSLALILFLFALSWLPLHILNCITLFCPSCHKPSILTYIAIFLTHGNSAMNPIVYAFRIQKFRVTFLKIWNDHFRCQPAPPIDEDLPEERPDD
Description: (§1) Sf9 cells were cultured in Grace's medium supplemented with 10% fetal bovine serum, 2.5 μg/ml amphotericin B and 50 μg/ml gentamycin in an atmosphere of 50% N2/50% O2. Viral infection was performed at a density of 2.5×10^6 cells/mL with a multiplicity of infection of two for each virus used. Infected cells were harvested 3 days post-infection and washed twice in insect PBS (PBS pH 6.3). Cells were then resuspended in lysis buffer (20 mM HEPES pH 7.5, 150 mM NaCl, 3 mM MgCl2, 1 mM β-mercaptoethanol (BME), 5 μg/mL leupeptin, 5 μg/mL pepstatin A, 1 μg/mL aprotinin, and 0.1 mM PMSF) and snap frozen for storage at −80° C. Cells were thawed on ice, brought to 30 mL total volume in lysis buffer, and burst by N2 cavitation (600 psi for 20 minutes). A low-speed centrifugation was performed to remove any unlysed cells (1000×g for 10 minutes), followed by a high-speed centrifugation (17,000×g for 30 minutes). The pellet from the final centrifugation was homogenized in buffer containing 20 mM HEPES pH 8, 100 mM NaCl, 1% glycerol, 2 μg/mL leupeptin, 2 μg/mL pepstatin A, 2 μg/mL Aprotinin, 0.1 mM PMSF, and 10 μM GDP using a small glass homogenizer followed by passage through a 26 gauge needle. Membranes were aliquoted, snap frozen in liquid N2, and stored at −80° C. Membranes from cells stably expressing the human A1 AR(CHO K1 cells) or A3 AR (HEK 293 cells) were prepared as described (Robeva et al., 1996).
(§2) Radioligand binding to recombinant human A2A receptors in Sf9 cell membranes was performed using either the radio labeled agonist, ^125I-APE (Luthin et al., 1995) or the radio labeled antagonist, ^125I-ZM241385 (^125I-ZM). To detect the high affinity, GTPγS-sensitive state of A1 and A3AR, we used the agonist, ^125I-ABA (Linden et al., 1985; Linden et al., 1993). Binding experiments were performed in triplicate with 5 μg (A2A) or 25 μg (A1 and A3) membrane protein in a total volume of 0.1 mL HE buffer (20 mM HEPES and 1 mM EDTA) with 1 U/mL adenosine deaminase and 5 mM MgCl2 with or without 50 μM GTPγS. […] Nonspecific binding was measured in the presence of 50 μM NECA. […]

[2] = tested on: human neutrophils; test: Human neutrophil oxidative activity, luminol-enhanced chemiluminescence (fMLP stimulated); assay type: cell-based; conditions: human neutrophil experiment as described in Example 6 without Rolipram, peak chemiluminescence, read-out: Functional
Description: Chemiluminescence Methods: Luminol enhanced chemiluminescence, a measure of neutrophil oxidative activity, is dependent upon both superoxide production and mobilization of the granule enzyme myeloperoxidase. The light is emitted from unstable high-energy oxygen species such as hypochlorous acid and singlet oxygen generated by activated neutrophils.
Following incubation 100 µL aliquots of the PMN were transferred to wells (White walled clear bottom 96 well tissue culture plates Costar #3670; 2 wells/condition) containing […] and luminol (final concentration 100 µM) with or without adenosine agonist (final agonist concentrations 0.01-1000 nM). The plate was incubated 5 min (37° C.) and then fMLP ([…] in HA; final concentration […]) was added to all wells.
Peak chemiluminescence was determined with a Victor 1420 Multilabel Counter in the chemiluminescence mode using the Wallace Workstation software. Data are presented as peak chemiluminescence as percent of activity in the absence of an adenosine agonist. The EC50 was determined using PRISM software. All compounds were tested with PMNs from three separate donors.
Purified neutrophils (−98% neutrophils and >95% viable by trypan blue exclusion) containing <1 platelet per 5 neutrophils and <50 pg/ml endotoxin (limulus amebocyte lysate assay) were obtained from normal heparinized (10 U/ml) venous blood by a one step Ficoll-hypaque separation procedure (A. Ferrante et al., J. Immunol. Meth., 36, 109 (1980)).
Luminol-enhanced chemiluminescence, a measure of neutrophil oxidative activity, is dependent upon both superoxide production and mobilization of the lysosomal granule enzyme myeloperoxidase. The light is emitted from unstable high-energy oxygen species generated by activated neutrophils. […] Then luminol (1×10^−4 M) enhanced f-met-leu-phe (1 mcM) stimulated chemiluminescence was read with a Chronolog® Photometer (Crono-log Corp., Havertown, Pa.) at 37° C. for 2-4 minutes. […]

[3] = target: T2, A3 AR (Homo sapiens, UniProt P0DMS8); test: Radioligand competition binding to human A3 adenosine receptor (125I-ABA); conditions: membranes of HEK 293 cells expressing A3 AR, read-out: A3 (nM) binding affinity
T2 construct: expressed in transfected cells
T2 sequence (P0DMS8 1-318): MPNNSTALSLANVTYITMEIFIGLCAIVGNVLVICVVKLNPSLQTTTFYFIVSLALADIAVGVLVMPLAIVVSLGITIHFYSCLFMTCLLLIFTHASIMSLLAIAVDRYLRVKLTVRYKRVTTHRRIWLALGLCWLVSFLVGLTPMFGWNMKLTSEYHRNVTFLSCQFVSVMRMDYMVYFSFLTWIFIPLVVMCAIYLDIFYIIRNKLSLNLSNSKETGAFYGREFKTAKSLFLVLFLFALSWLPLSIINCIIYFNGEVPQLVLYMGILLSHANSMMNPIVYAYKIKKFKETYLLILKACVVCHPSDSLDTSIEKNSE
Description: as §1, §2

[4] = target: T3, recombinant human A2A receptors (Homo sapiens, UniProt P29274); test: Radioligand competition binding to recombinant human A2A receptors in Sf9 cell membranes (125I-APE or 125I-ZM241385); conditions: read-out: A2A (nM) binding affinity
T3 construct: expressed in transfected cells; host or cells: Sf9 insect cells, viral infection, membranes
Description: as §1, §2

T3 sequence (P29274 whole entry): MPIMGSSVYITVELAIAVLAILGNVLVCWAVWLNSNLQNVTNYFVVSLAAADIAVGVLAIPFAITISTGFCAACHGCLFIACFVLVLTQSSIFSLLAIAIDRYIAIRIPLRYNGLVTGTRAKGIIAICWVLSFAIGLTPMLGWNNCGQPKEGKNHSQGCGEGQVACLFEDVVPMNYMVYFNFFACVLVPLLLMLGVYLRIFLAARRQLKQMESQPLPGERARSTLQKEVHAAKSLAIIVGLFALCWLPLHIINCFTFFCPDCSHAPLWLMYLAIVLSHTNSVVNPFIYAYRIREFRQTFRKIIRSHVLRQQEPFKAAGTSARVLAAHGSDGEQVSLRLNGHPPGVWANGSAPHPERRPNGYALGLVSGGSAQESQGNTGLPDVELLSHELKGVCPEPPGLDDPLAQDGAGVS

Ki [1] [nM] | EC50 ([2]; Homo sapiens, Neutrophil) [nM] | Ki [3] [nM] | Ki [4] [nM] | EC50 [2] [nM] | SMILES
10 | 0.9 | 7 | 0.6 | – | Nc1nc(C#CC2(O)CC3CCC2C3)nc2c1ncn2[C@@H]1O[C@H](C(=O)NC2CC2)C(O)C1O (stereo in doubt) [Example 1, 5-[6-Amino-2-(2-hydroxy-bicyclo[2.2.1]hept-2-ylethynyl)-purin-9-yl]-3,4-dihydroxy-tetrahydro-furan-2-carboxylic acid cyclopropylamide]
18 | – | 12 | 2 | 1.5 | Nc1nc(C#CC2(O)CC3CCC2C3)nc2c1ncn2[C@@H]1O[C@H](C(=O)NC2CC2)C(O)C1O (stereo in doubt) [Example 2, 5-[6-Amino-2-(2-hydroxy-bicyclo[2.2.1]hept-2-ylethynyl)-purin-9-yl]-3,4-dihydroxy-tetrahydro-furan-2-carboxylic acid cyclopropylamide]
67.2 | 2.4 | 45.4 | 1 | – | Nc1nc(C#CC2(O)C3CC4CC(C3)CC2C4)nc2c1ncn2[C@@H]1O[C@H](C(=O)NC2CC2)C(O)C1O (stereo in doubt) [Example 3, 5-[6-Amino-2-(2-hydroxy-adamantan-2-ylethynyl)-purin-9-yl]-3,4-dihydroxy-tetrahydro-furan-2-carboxylic acid cyclopropylamide]
